Experiment [1] deals with T1, CD73 (Homo sapiens, UniProt P21589).
T1 construct: purchased R&D systems 5795-EN-010
T1 sequence (P21589 27-547 limits assumed): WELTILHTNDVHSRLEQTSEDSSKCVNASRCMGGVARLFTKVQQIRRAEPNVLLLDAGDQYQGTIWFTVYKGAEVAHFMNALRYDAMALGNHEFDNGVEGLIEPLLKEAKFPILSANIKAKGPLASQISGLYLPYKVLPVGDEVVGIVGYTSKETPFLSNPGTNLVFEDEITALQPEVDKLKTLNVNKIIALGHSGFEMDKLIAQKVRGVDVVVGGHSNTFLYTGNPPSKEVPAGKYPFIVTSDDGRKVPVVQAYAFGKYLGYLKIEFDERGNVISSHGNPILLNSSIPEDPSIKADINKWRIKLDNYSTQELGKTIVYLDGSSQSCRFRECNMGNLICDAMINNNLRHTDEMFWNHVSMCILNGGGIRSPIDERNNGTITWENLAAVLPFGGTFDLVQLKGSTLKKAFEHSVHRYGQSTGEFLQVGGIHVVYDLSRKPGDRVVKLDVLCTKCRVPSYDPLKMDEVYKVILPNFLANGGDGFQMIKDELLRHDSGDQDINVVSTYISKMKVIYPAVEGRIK
Kind of experiment: In vitro enzymatic activity against CD73 (malachite green test using soluble CD73). The note with it: soluble CD73 36 ng/mL, 50 μM AMP, 30 minutes at 25° C. In kind it is biochemical. On the procedure:
The malachite green test using soluble CD73, which is synthesized in vitro was used in the present invention to determine the characteristics of inhibitory activity of the compounds against CD73. The specific experimental procedures were as following:
1. The enzyme reaction in this experiment was carried out in 384-well plates, and CD73 (R&D systems #5795-EN-010) at a concentration of 36 ng/mL, the compounds at different concentrations and 50 μM AMP were incubated for 30 minutes at 25° C. in a 40 uL reaction system (consisting of 25 mM Tris pH 7.5, 5 mM MgCl2, and 0.005% Tween-20);
2. Then, 10 μL of malachite green solution (Sigma) was added to each well to terminate the reaction;
3. The concentration of resulting inorganic phosphate was determined according to the instructions of the reagent manufacturer;
4. The enzymatic activity of CD73 was calculated based on the concentration of the product, and then IC50 values were determined by non-linear regression analysis of the inhibition percentage of the compounds of the present invention at different concentrations.

Experiment [2] concerns the target T2, CD73 enzymatic activity expressed on the cell surface of MDA-MB-231 cells (Homo sapiens, UniProt P21589).
T2 construct: Human breast cancer cells MDA-MB-231 that endogenously express CD73 were used; host or cells: MDA-MB-231
T2 sequence (P21589 27-549): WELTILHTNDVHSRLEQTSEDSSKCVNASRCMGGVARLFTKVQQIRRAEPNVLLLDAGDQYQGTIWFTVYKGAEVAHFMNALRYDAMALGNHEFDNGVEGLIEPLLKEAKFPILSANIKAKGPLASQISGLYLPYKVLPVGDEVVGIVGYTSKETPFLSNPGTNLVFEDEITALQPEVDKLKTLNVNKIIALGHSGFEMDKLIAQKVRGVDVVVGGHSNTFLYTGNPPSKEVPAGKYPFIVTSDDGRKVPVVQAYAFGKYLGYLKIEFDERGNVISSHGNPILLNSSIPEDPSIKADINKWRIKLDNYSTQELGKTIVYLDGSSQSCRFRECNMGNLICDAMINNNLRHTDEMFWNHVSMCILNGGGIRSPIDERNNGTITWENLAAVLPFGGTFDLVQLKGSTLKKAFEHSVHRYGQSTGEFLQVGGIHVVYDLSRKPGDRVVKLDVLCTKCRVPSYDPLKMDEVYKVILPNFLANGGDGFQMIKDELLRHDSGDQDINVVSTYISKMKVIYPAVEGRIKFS
In words: Inhibition of CD73 enzymatic activity on the cell surface (Cell Titer Glo (CTG) experiment), MDA-MB-231 cells. The note with it: MDA-MB-231 cells endogenously expressing CD73, AMP, 37° C. for 2 hours, CTG readout; read-out: Cellular activity IC50. Format: cell-based. On the procedure: Human breast cancer cells MDA-MB-231 that endogenously express CD73 were used in the present invention to evaluate the inhibition of the compound against the CD73 enzymatic activity expressed on the cell surface. The cells used were from the Cell Bank of the Chinese Academy of Sciences. The specific experimental procedures were as follows:
1. Before the test, MDA-MB231 cells were seeded to a 96-well plate at 20000 cells/well;
2. In RPMI1640, 10% fetal bovine serum (Gibco, 10099-141), placed in a 5% CO2 incubator at 37° C. overnight (the cells were washed three times by using a serum-free RPMI medium right before the test):
3. 50 μl of serum-free media containing the compounds at different concentrations were added to the cells and incubated for 15 minutes;
4. 25 μL of 1.2 mM AMP was added for incubation at 37° C. for 2 hours, 25 μL of supernatant was then collected from the cells and mix with 25 μL of 100 μM ATP, and then the concentration of AMP in the samples was determined by CTG (Promega, #G7573);
5. Then, a reduction ratio of the substrate AMP level in the cell culture supernatant collected after the reaction was quantitatively determined to evaluate the inhibitory effects of the examples of the present invention and the positive compounds against the CD73 enzymatic activity on the cell surface;
6. Finally, the concentration of the compound leading to half maximal inhibition of enzymatic activity (IC50) was determined using a four-parameter non-linear logistic model curve fit in Graphpad Prism.
On the technique in general: ATP-based viability assays read luminescence as a measure of living cells.

The IC50 is the concentration needed to halve the response being measured.

On to `C[C@@H](Nc1nc(Cl)nc2c1cnn2[C@@H]1O[C@H](COP(=O)(O)CP(=O)(O)O)[C@@H](O)[C@H]1O)c1ccc(S(F)(F)(F)(F)F)cc1` [Example 1, (((((2R,3S,4R,5R)-5-(6-chloro-4-(((R)-1-(4-(pentafluoro-λ^6-sulfanyl)phenyl)ethyl)amino)-1H-pyrazolo[3,4-d]pyrimidin-1-yl)-3,4-dihydroxytetrahydrofuran-2-yl)methoxy)(hydroxy)phosphoryl)methyl)phosphonic acid], for which the IC50 was 6.8 nM in experiment [1] and 0.373 nM in experiment [2].
In the same order, the values of `C[C@H](Nc1nc(Cl)nc2c1cnn2[C@@H]1O[C@H](COP(=O)(O)CP(=O)(O)O)[C@@H](O)[C@H]1O)c1ccc(S(F)(F)(F)(F)F)cc1` [Example 2, (((((2R,3S,4R,5R)-5-(6-chloro-4-(((S)-1-(4-(pentafluoro-λ^6-sulfanyl)phenyl)ethyl)amino)-1H-pyrazolo[3,4-d]pyrimidin-1-yl)-3,4-dihydroxytetra-hydrofuran-2-yl)methoxy)(hydroxy)phosphoryl)methyl)phosphonic acid] are 20.6 nM and 0.73 nM.
The matching figures for `C[C@@H](Nc1nc(Cl)nc2c1cnn2[C@@H]1O[C@H](COP(=O)(O)CP(=O)(O)O)[C@@H](O)[C@H]1O)c1ccc(S(F)(F)(F)(F)F)cc1F` [Example 3, (((((2R,3S,4R,5R)-5-(6-chloro-4-(((R)-1-(2-fluoro-4-(pentafluoro-λ^6-sulfanyl)phenyl)ethyl)amino)-1H-pyrazolo[3,4-d]pyrimidin-1-yl)-3,4-dihydroxytetrahydrofuran-2-yl)methoxy)(hydroxy)phosphoryl)methyl)phosphonic acid]: 1.6 nM and 0.722 nM.
In the same order, the values of `C[C@H](Nc1nc(Cl)nc2c1cnn2[C@@H]1O[C@H](COP(=O)(O)CP(=O)(O)O)[C@@H](O)[C@H]1O)c1ccc(S(F)(F)(F)(F)F)cc1F` [Example 4, (((((2R,3S,4R,5R)-5-(6-chloro-4-(((S)-1-(2-fluoro-4-(pentafluoro-λ^6-sulfanyl)phenyl)ethyl)amino)-1H-pyrazolo[3,4-d]pyrimidin-1-yl)-3,4-dihydroxytetrahydrofuran-2-yl)methoxy)(hydroxy)phosphoryl)methyl)phosphonic acid] are 23.4 nM and 0.9 nM.
For `C[C@H](Nc1cc(Cl)nc2c1cnn2[C@@H]1O[C@H](COP(=O)(O)CP(=O)(O)O)[C@@H](O)[C@H]1O)c1ccc(S(F)(F)(F)(F)F)cc1F` [Example 5, (((((2R,3S,4R,5R)-5-(6-chloro-4-(((S)-1-(2-fluoro-4-(pentafluoro-λ^6-sulfanyl)phenyl)ethyl)amino)-1H-pyrazolo[3,4-b]pyridin-1-yl)-3,4-dihydroxytetrahydrofuran-2-yl)methoxy)(hydroxy)phosphoryl)methyl)phosphonic acid], the values for the concentration for half-maximal inhibition (IC50) in experiment [1] and in experiment [2] were 36.5 nM and 0.49 nM, respectively.
`C[C@H](Nc1cc(Cl)nc2c1cnn2[C@@H]1O[C@H](COP(=O)(O)CP(=O)(O)O)[C@@H](O)[C@H]1O)c1ccc(S(F)(F)(F)(F)F)cc1` [Example 6, (((((2R,3S,4R,5R)-5-(6-chloro-4-(((S)-1-(4-(pentafluoro-λ^6-sulfanyl)phenyl)ethyl)amino)-1H-pyrazolo[3,4-b]pyridin-1-yl)-3,4-dihydroxytetrahydrofuran-2-yl)methoxy)(hydroxy)phosphoryl)methyl) phosphonic acid]: the figures for the IC50 in experiment [1] and in experiment [2] were 2.4 nM and 0.302 nM, respectively.
The matching figures for `C[C@@H](Nc1cc(Cl)nc2c1cnn2[C@@H]1O[C@H](COP(=O)(O)CP(=O)(O)O)[C@@H](O)[C@H]1O)c1ccc(S(F)(F)(F)(F)F)cc1` [Example 7, (((((2R,3S,4R,5R)-5-(6-chloro-4-(((R)-1-(4-(pentafluoro-λ^6-sulfanyl)phenyl)ethyl)amino)-1H-pyrazolo[3,4-b]pyridin-1-yl)-3,4-dihydroxytetrahydrofuran-2-yl)methoxy)(hydroxy)phosphoryl)methyl) phosphonic acid]: 15.1 nM and 1.61 nM.
The matching figures for `C[C@H](Nc1cc(Cl)nc2c1cnn2[C@@H]1O[C@H](COP(=O)(O)CP(=O)(O)O)[C@@H](O)[C@H]1O)c1cccc(S(F)(F)(F)(F)F)c1` [Example 8, (((((2R,3S,4R,5R)-5-(6-chloro-4-(((S)-1-(3-(pentafluoro-λ^6-sulfanyl)phenyl)ethyl)amino)-1H-pyrazolo[3,4-b]pyridin-1-yl)-3,4-dihydroxytetrahydrofuran-2-yl)methoxy)(hydroxy)phosphoryl)methyl) phosphonic acid]: 2 nM and 0.59 nM.
In the same order, the values of `C[C@@H](Nc1cc(Cl)nc2c1cnn2[C@@H]1O[C@H](COP(=O)(O)CP(=O)(O)O)[C@@H](O)[C@H]1O)c1cccc(S(F)(F)(F)(F)F)c1` [Example 9, (((((2R,3S,4R,5R)-5-(6-chloro-4-(((R)-1-(3-(pentafluoro-λ^6-sulfanyl)phenyl)ethyl)amino)-1H-pyrazolo[3,4-b]pyridin-1-yl)-3,4-dihydroxytetrahydrofuran-2-yl)methoxy)(hydroxy)phosphoryl)methyl) phosphonic acid] are 4.8 nM and 1.45 nM.
With `O=P(O)(O)CP(=O)(O)OC[C@H]1O[C@@H](n2ncc3c(NCc4ccccc4S(F)(F)(F)(F)F)cc(Cl)nc32)[C@H](O)[C@@H]1O` [Example 10, (((((2R,3S,4R,5R)-5-(6-chloro-4-((2-(pentafluoro-λ^6-sulfanyl)phenylmethyl)amino)-1H-pyrazolo[3,4-b]pyridin-1-yl)-3,4-dihydroxytetrahydrofuran-2-yl)methoxy)(hydroxy)phosphoryl)methyl) phosphonic acid], the IC50 in experiment [1] was found to be 3.1 nM; in experiment [2], 0.21 nM.
In the same order, the values of `C[C@@H](Nc1cc(Cl)nc2c1cnn2[C@@H]1O[C@H](COP(=O)(O)CP(=O)(O)O)[C@@H](O)[C@H]1O)c1ccc(S(F)(F)(F)(F)F)cc1F` [Example 11, (((((2R,3S,4R,5R)-5-(6-chloro-4-(((R)-1-(2-fluoro-4-(pentafluoro-λ^6-sulfanyl)phenyl)ethyl)amino)-1H-pyrazolo[3,4-b]pyridin-1-yl)-3,4-dihydroxytetrahydrofuran-2-yl)methoxy)(hydroxy)phosphoryl)methyl) phosphonic acid] are 31.6 nM and 0.99 nM.
Consider `O=P(O)(O)CP(=O)(O)OC[C@H]1C[C@@H](c2ccc3c(N[C@H]4CCc5ccccc54)nc(Cl)nn23)[C@H](O)[C@@H]1O` [Example 26, (((((1R,2R,3S,4S)-4-(2-chloro-4-(((S)-2,3-dihydro-1H-inden-1-yl)amino)pyrrolo[2,1-f][1,2,4]triazin-7-yl)-2,3-dihydroxy-cyclopentyl)methoxy)(hydroxy)phosphoryl)methyl)phosphonic acid], for which the IC50 in experiment [2] stood at 3.18 nM.

These data come from US12157755B2, “CD73 inhibitor, preparation method therefor and application thereof” (Abbisko Therapeutics Co., Ltd., priority 2019, dated 2024).
